Data taken from patent US6552083B1, “Agents inhibiting chronic rejection reactions after organ transplantation” (Kissei Pharmaceutical Co., Ltd., priority 1999, dated 2003).

Tests used:
transplanted heart = assay: Test for evaluating rejection in transplant organ after organ transplantation (infiltration of lymphocytes into the tissue); assay type: in vivo, mice (DBA/2 donor, B10D2 recipient)
Excerpt: In a transplantation test, 4 to 6-week-old DBA/2 male mice each weighing 20 to 25 g (available from Charles River Laboratories) were used an donor animals, and 4 to 6-week-old B10D2 male mice each weighing 20 to 25 g (ava from Charles River Laboratories) were used as recipient animals. From three days before testing, mice in a control group were fed on a standard diet, and mice in a drug-treated group were given a 0.25% or 0.5% tranilast-containing diet (CE-2). On the day of testing, the heart was excised from a donor mouse and transplanted into the abdomen of a recipient mouse in accordance with the procedures described in the literature (Science, vol. 255, pp. 1125-1127 (1992)). Fourteen and twenty-eight days from the transplantation, the transplanted heart was excised and placed in formalin. Three specimens (thickness: […]) were sliced from different sites of the excised heart. Each slice was stained with Elastica van Geison stain, and the coronary arteries were observed under a microscope to calculate a vascular stenosis ratio according to the following equation: The degree of rejection in the hearts transplanted to and excited from the recipient mice in the same manner as in Example 1 was evaluated in terms of the degree of infiltration of lymphocytes into the tissue in accordance with the Working Formation of the International Society for Heart and Lung Transplantation and with the following criteria. 0 . . . No infiltration of lymphocytes into the tissue was seen. 1 . . . Slight infiltration of lymphocytes into the tissue was observed. 2 . . . Medium infiltration of lymphocytes into the tissue was observed. 3 . . . Severe infiltration of lymphocytes into the tissue was observed.

[1] = tested on: coronary arteries of transplanted heart; assay: Test for confirming inhibitory activity against intimal thickening in transplant organ after organ transplantation (mouse heart transplantation model); assay type: in vivo, mice (DBA/2 donor, B10D2 recipient)
Excerpt: In a transplantation test, 4 to 6-week-old DBA/2 male mice each weighing 20 to 25 g (available from Charles River Laboratories) were used an donor animals, and 4 to 6-week-old B10D2 male mice each weighing 20 to 25 g (ava from Charles River Laboratories) were used as recipient animals. From three days before testing, mice in a control group were fed on a standard diet, and mice in a drug-treated group were given a 0.25% or 0.5% tranilast-containing diet (CE-2). On the day of testing, the heart was excised from a donor mouse and transplanted into the abdomen of a recipient mouse in accordance with the procedures described in the literature (Science, vol. 255, pp. 1125-1127 (1992)). Fourteen and twenty-eight days from the transplantation, the transplanted heart was excised and placed in formalin. Three specimens (thickness: […]) were sliced from different sites of the excised heart. Each slice was stained with Elastica van Geison stain, and the coronary arteries were observed under a microscope to calculate a vascular stenosis ratio according to the following equation: Vascular stenosis ratio (%)=[(area inside of elastica −lumen area)/area inside of elastica]×100

[2] = 0.25% or 0.5% tranilast-containing diet, mouse heart transplantation

SMILES: COc1ccc(/C=C/C(=O)Nc2ccccc2C(=O)O)cc1OC [Tranilast, N-(3,4-dimethoxycinnamoyl)anthranililc acid]
- Infiltration of lymphocytes into the tissue (result in words) (transplanted heart; [2]): alleviates infiltration of lymphocytes into the tissue
- Degree of rejection (transplanted heart; score 0 (no) to 3 (severe) lymphocyte infiltration, 0.25% tranilast-containing feed, 14-days post-operation, control group 2.07): 1.70
- Degree of rejection (transplanted heart; score 0 to 3, 0.25% tranilast-containing feed, 28-days post-operation, control group 2.88): 2.38
- Degree of rejection (transplanted heart; score 0 to 3, 0.5% tranilast-containing feed, 14-days post-operation, control group 2.07): 1.80
- Degree of rejection (transplanted heart; score 0 to 3, 0.5% tranilast-containing feed, 28-days post-operation, control group 2.88): 2.08
- Inhibition of vascular thickening in a transplanted heart (result in words) [1, 2]: dose-dependently significantly inhibits vascular thickening in a transplanted heart
- Vascular Stenosis Ratio (%) ([1]; 0.25% tranilast-containing feed from 3 days before transplantation, 14-days post-operation, control group 70.3): 55.5%
- Vascular Stenosis Ratio (%) ([1]; 0.25% tranilast-containing feed, 28-days post-operation, control group 73.3): 61.9%
- Vascular Stenosis Ratio (%) ([1]; 0.5% tranilast-containing feed, 14-days post-operation, control group 70.3): 45.5%
- Vascular Stenosis Ratio (%) ([1]; 0.5% tranilast-containing feed, 28-days post-operation, control group 73.3): 47.7%
